Experimental data published in US12377119B2, “Natural killer cells” (IMPERIAL COLLEGE INNOVATIONS LIMITED, priority 2018, dated 2025).
Entries after “also recorded” stand apart in the source; their conditions may differ.

target: T1, REV-ERBα (Homo sapiens, UniProt P20393); test: Dual-luciferase Bmal-luc reporter assay in HEK293T cells transfected with REV-ERBα; assay type: cell-based; conditions: 10 μM; FIG. 3; three independent experiments in triplicate; comparison with SR8278
T1 construct: expressed in transfected cells; host or cells: HEK293T
T1 sequence (P20393 1-614): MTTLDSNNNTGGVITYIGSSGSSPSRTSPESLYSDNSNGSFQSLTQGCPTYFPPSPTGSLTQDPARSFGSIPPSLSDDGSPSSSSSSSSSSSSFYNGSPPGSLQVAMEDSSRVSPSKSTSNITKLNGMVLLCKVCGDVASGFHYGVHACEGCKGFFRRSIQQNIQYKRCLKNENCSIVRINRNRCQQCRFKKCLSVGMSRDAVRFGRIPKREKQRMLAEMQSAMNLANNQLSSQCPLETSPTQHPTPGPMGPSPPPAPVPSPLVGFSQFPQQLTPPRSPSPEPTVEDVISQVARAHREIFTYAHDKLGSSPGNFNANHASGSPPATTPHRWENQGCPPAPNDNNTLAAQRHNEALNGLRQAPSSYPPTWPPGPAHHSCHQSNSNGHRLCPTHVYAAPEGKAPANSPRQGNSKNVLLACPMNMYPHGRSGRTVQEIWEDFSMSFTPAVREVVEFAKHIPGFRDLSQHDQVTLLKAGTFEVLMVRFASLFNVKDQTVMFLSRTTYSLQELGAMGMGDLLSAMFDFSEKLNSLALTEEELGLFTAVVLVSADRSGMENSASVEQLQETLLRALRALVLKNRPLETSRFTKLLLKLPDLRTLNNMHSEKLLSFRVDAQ
Protocol: HEK293T cells were defrosted and maintained in DMEM supplemented with 10% FCS and 1% P/S at 37° C. and 5% CO2. Cells were plated in a 24-well plate (7·10^4 cells/well in 0.5 mL of DMEM+10% FCS). 24 h after seeding, cells were transfected with 100 ng of Bmal-luc, 10 ng of pRL-CMV Renilla as an internal control and 10 ng of REV-ERBα or the empty vector pcDNA3 as a control. All conditions were equalled to a total of 400 ng of DNA by using BSM. In order to prepare transfection samples, calculated amounts of DNA needed for each condition were prepared in Opti-MEM and Fugene was added in a 5:2 Fugene:DNA ratio. Mixtures were vortexed to assure homogeneity and left to incubate for 15 min at rt. Afterwards, each DNA mix was transferred into the 24-well plate containing the pre-seeded cells, with each condition repeated by triplicate. 5 h after transfection, cells were treated with compounds 2-12, AG1-AG5 or DMSO as vehicle. Solution of the compounds in DMEM were prepared at a double concentration than the final desired one, and 0.5 mL of these solutions were added to each well. 24 h after transfection, cells were lysed and luciferase activity was measured using Dual-Luciferase Reporter Assay System E2920 (Promega). To perform the experiment, cells were lysed by adding 50 μL of passive lysis buffer (PLB) (1:5 dilution) to each well and gently stirring for 30 min. Each cell lysate was transferred to a 96-well plate. 50 μL of Dual-Glo reagent were dispensed into each well, tapped gently to mix and incubated for 10 min. Luminescence of firefly luciferase was measured using a Tecan VICTOR Light Luminescent counter equipment. Then, 50 μL of Stop&Glo reagent were dispensed to quench firefly activity and activate Renilla luciferase, incubated for 10 min and measured. Firefly activity was normalized to Renilla luciferase activity. Results were analysed using Welch's corrected parametric t-test.
(§1) The method of Example 2 was repeated using Compounds 70 to 72 (generated as described in Example 1). Compounds 4, 7 and 11 (tested in Example 2) were used as a positive control for REV-ERB inhibitory activity, agonist compound AG2 (also tested in Example 2) and DMSO were also tested as comparators.
The method of Example 2 was repeated using Compounds 64 to 66, 69 and 70 to 73 (generated as described in Example 1). Once again, Compounds 4, 7 and 11 (tested in Example 2) were used as a positive control for REV-ERB inhibitory activity, agonist compound AG2 (also tested in Example 2) and DMSO were also tested as comparators.
as §1, with “16” for “70”, “19, 27, 28 and 44” for “72”, “1). Once again,” for “1).”

**Q.** Which “Effect on REV-ERBα activity (Bmal-luc luciferase expression)” value (“Effect on REV-ERBα activity” below) does the source give for CCOC(=O)C1Cc2ccccc2CN1C(=O)c1scnc1C (racemic) [Compound 12, Ethyl 2-(4-methylthiazole-5-carbonyl)-1,2,3,4-tetrahydrolsoquinoline-3-carboxylate] here?
**A.** The value was “significant increase in luciferase expression compared with SR8278; also recorded: significant antagonistic activity”.

**Q.** CCOC(=O)C1Cc2ccccc2CN1C(=O)c1cccc2ccccc12 (stereo not shown) [AG1] was tested. Which “Effect on REV-ERBα activity” value did it give?
**A.** Its value is “agonists”.

**Q.** How did the “Effect on REV-ERBα activity” value turn out when CCOC(=O)C1Cc2ccccc2CN1C(=O)c1ccno1 (racemic) [Compound 8, Ethyl 2-(isoxazole-5-carbonyl)-1,2,3,4-tetrahydrolsoquinoline3-carboxylate] was run?
**A.** The value was “significant increase in luciferase expression compared with SR8278; also recorded: significant antagonistic activity”.

**Q.** Which “Effect on REV-ERBα activity” value does the source give for CSc1ccc(C(=O)N2Cc3ccccc3CC2COc2ccc(OC(C)(C)C)cc2)s1 (stereo not shown) [AG5] here?
**A.** Its value is “agonists”.

same assay, conditions: 10 μM; FIG. 7; three independent experiments in triplicate

**Q.** Which “Effect on REV-ERBα activity” value does the source give for CCOC(=O)C1Cc2ccccc2CN1C(=O)c1cccnc1F (racemic) [Compound 27] here?
**A.** The value was “Inhibitory effect on REV-ERB was observed; also recorded: significant antagonistic activity”.

**Q.** For CCOC(=O)C1Cc2ccccc2CN1C(=O)c1ccnc(C)c1 (racemic) [Compound 28], which “Effect on REV-ERBα activity” value is on record?
**A.** Its value is “Inhibitory effect on REV-ERB was observed; also recorded: significant antagonistic activity”.

**Q.** For CSc1ccc(C(=O)N2Cc3ccccc3CC2COc2ccc(OC(C)(C)C)cc2)s1 (stereo not shown) [AG5], which “Effect on REV-ERBα activity” value is on record?
**A.** The value was “agonist”.
